{
  "source": "patent US4895589A",
  "about": "“Heterocyclic compounds” (Imperial Chemical Industries PLC, priority 1985, dated 1990)",
  "key": {"Wheat [1]": {"tested_on": "Wheat", "assay": "Whole Plant Screen (2), wheat", "format": "in vivo, Wheat (Timmo)", "details": "WW, 4000 ppm, side-by-side, Table XIII", "in_short": "(§1)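 Foliar spray at 4000 ppm (4 kg/ha in 1000 l/ha) by tracksprayer at the listed leaf stage. Plants grown in glasshouse at 25° C. day/22° C. night, 16° C./13° C. for wheat, 16 h photoperiod. Morphology visually assessed after 2-6 weeks against formulation blanks.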"}, "Spring Barley": {"tested_on": "Spring Barley", "assay": "Intermediate Retardant Test, spring barley", "format": "in vivo, Spring Barley (Atem/kym)", "details": "Hordeum vulgare, 672 h, ~28 days, read-out: Percentage Reduction in Height of Spring Barley (Compared to formulation blank)", "in_short": "(§2)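 Overall spray at 1000 ppm and 4000 ppm (1 and 4 kg ha^-1, 1000 l/ha), giving foliar plus root exposure; rice in flooded paddy pots, barley and apples in 4\" pots. Height measured ~28 days after treatment (ligule for cereals, apex for apples), reported as % reduction versus formulation blank.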"}, "Wheat [2]": {"tested_on": "Wheat", "details": "WW, 4000 ppm, 2-3 weeks"}, "Agrostis tenius": {"tested_on": "Agrostis tenius", "details": "AT, 4000 ppm, 2-3 weeks"}, "Tomato": {"tested_on": "Tomato", "details": "TO, 4000 ppm, 2-3 weeks"}, "Soya": {"tested_on": "Soya", "details": "SY, 4000 ppm, 2-3 weeks", "description": "(§3) The compounds were tested for plant growth regulator activity against up to tweleve plant species for various growth effects relevant to plant growth regulation.\n(§4) After spray, the plants were grown in a glasshouse with 25° C. day/22° C. night temperatures and supplementary lighting was supplied when necessary (from mercury vapour lamps), to provide a 16 hour photoperiod. The exception to this were the temperate cereals, wheat and barley, which were grown in 16° C. day 13° C. night temperatures\n(§5) After 2-3 weeks in the glasshouse, depending on the time of year, the plants were visually assessed for morphological characteristics. Formulations blanks were used as controls to assess the Plants."}, "Barley": {"tested_on": "Barley", "details": "BR, 4000 ppm, 2-3 weeks"}, "Rice [3]": {"tested_on": "Rice", "assay": "Intermediate Retardant Test, rice", "format": "in vivo, Rice (Ishikari)", "details": "Oryza sativa, 672 h, ~28 days, read-out: Percentage Reduction in Height of Rice (Compared to formulation blank)", "in_short": "as §2"}, "Apples": {"tested_on": "Apples", "assay": "Intermediate Retardant Test, apples", "format": "in vivo, Apples (Red Delicious)", "details": "672 h, ~28 days, read-out: Percentage Reduction in Height of Apples (Compared to formulation blank)", "in_short": "as §2"}, "Sugar beet": {"tested_on": "Sugar beet", "details": "SB, 4000 ppm, 2-3 weeks", "description": "as §3, §4, §5"}, "Cynosurus cristatus": {"tested_on": "Cynosurus cristatus", "details": "CC, 4000 ppm, 2-3 weeks", "description": "as §3, §4, §5"}, "Rice [4]": {"tested_on": "Rice", "assay": "Whole Plant Screen (2), rice", "format": "in vivo, Rice (Ishikari)", "details": "RC, 4000 ppm, side-by-side, Table XIII", "in_short": "as §1"}, "[5]": {"tested_on": "plant species of Whole Plant Screen (1) or (2)", "assay": "Across screen comparison: total retardation relative to paclobutrazol (Whole Plant Screens (1) and (2))", "format": "in vivo", "details": "compounds of Table I, Table X", "in_short": "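Compounds, each tested in Whole Plant Screen (1) or (2), are compared by summing retardation scores over all species tested. Each total is expressed as a percentage of the total retardation from paclobutrazol, the standard run in every test.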"}, "Apple": {"tested_on": "Apple", "assay": "Whole Plant Screen (2), apple", "format": "in vivo, Apple (Red Delicious)", "details": "AP, 4000 ppm, side-by-side, Table XIII", "protocol": "After 2-6 weeks in the glasshouse, depending on the time of year, the plants were visually assessed for morphological characteristics. Formulation blanks were used as controls to assess the plants.\nCompound numbers 1, 5 and 7 (of the present invention) were tested against compounds A, B, C and D (compound Nos. 12, 2, 24 and 50 of Table 1 EP No. 0052424) on whole plant screen (2). The compounds were tested of plant growth regulator activity against five species and for various growth effects relevant to plant growth regulation. The structures are set out in FIG. 1.\nThe plant species used in this screen are presented in Table XII with the leaf stage at which they were sprayed Each chemical was applied at 4000 ppm (4 kg/ha in a 1000 l/ha field volume) using a tracksprayer and a SS8004E (Teejet) nozzle. […]"}},
  "note": "Like-named read-outs stand apart in the source and are kept apart here.",
  "data": [
    {"smiles": "CCCCC#CC(O)(Cn1cncn1)C(C)(C)C", "note": "(stereo not shown) [Compound 1, 2,2-dimethyl-3-hydroxy-3-(hex-1-yne-1-yl)-4-(1,2,4-triazol-1-yl)-butane]", "values": [
      {"measurement": "T = Tillering or side shooting", "setting": "Wheat [1]", "value": "1 (10-30%)"},
      {"measurement": "height reduction vs blank at 1000 ppm", "setting": "Spring Barley; Table VIII", "value": 32.3, "unit": "%"},
      {"measurement": "height reduction vs blank at 1000 ppm", "setting": "Spring Barley; side-by-side, Table XV", "value": 28, "unit": "%"},
      {"measurement": "height reduction vs blank at 4000 ppm", "setting": "Spring Barley; Table VIII", "value": 60.7, "unit": "%"},
      {"measurement": "height reduction vs blank at 4000 ppm", "setting": "Spring Barley; side-by-side, Table XV", "value": 62, "unit": "%"},
      {"measurement": "Retardation score (1-3) with greening (G), apical damage (A), tillering/side shooting (T)", "setting": "Wheat [2]", "value": 3, "unit": "T"},
      {"measurement": "Retardation score (1-3) with greening (G), apical damage (A), tillering/side shooting (T)", "setting": "Agrostis tenius", "value": 3, "unit": "G"},
      {"measurement": "Retardation score (1-3) with greening (G), apical damage (A), tillering/side shooting (T)", "setting": "Tomato", "value": 2, "unit": "G"},
      {"measurement": "Retardation score (1-3) with greening (G), apical damage (A), tillering/side shooting (T)", "setting": "Soya", "value": 1, "unit": "G"},
      {"measurement": "Retardation score (1-3) with greening (G), apical damage (A), tillering/side shooting (T)", "setting": "Barley", "value": 3, "unit": "T"},
      {"measurement": "Percent reduction in rice plant height vs formulation blank at 1000 ppm", "setting": "Rice [3]; Table VII", "value": 24.6, "unit": "%"},
      {"measurement": "Percent reduction in rice plant height vs formulation blank at 1000 ppm", "setting": "Rice [3]; side-by-side, Table XVI", "value": 31, "unit": "%"},
      {"measurement": "Percent reduction in rice plant height vs formulation blank at 4000 ppm", "setting": "Rice [3]; Table VII", "value": 49.9, "unit": "%"},
      {"measurement": "Percent reduction in rice plant height vs formulation blank at 4000 ppm", "setting": "Rice [3]; side-by-side, Table XVI", "value": 53, "unit": "%"},
      {"measurement": "percent reduction in plant height vs formulation blank at 1000 ppm", "setting": "Apples; side-by-side, Table XVII", "value": 0, "unit": "%"},
      {"measurement": "percent reduction in plant height vs formulation blank at 4000 ppm", "setting": "Apples; Table IX", "value": 51.6, "unit": "%"},
      {"measurement": "percent reduction in plant height vs formulation blank at 4000 ppm", "setting": "Apples; side-by-side, Table XVII", "value": 41, "unit": "%"},
      {"measurement": "Retardation score (1-3) with greening (G), apical damage (A), tillering/side shooting (T)", "setting": "Sugar beet", "value": 1, "unit": "G"},
      {"measurement": "Retardation score (1-3) with greening (G), apical damage (A), tillering/side shooting (T)", "setting": "Cynosurus cristatus", "value": 2, "unit": "G"},
      {"measurement": "G = Greening effect", "setting": "Rice [4]", "value": "2 (31-60%)"},
      {"measurement": "I = Interligular or internodal length reduction", "setting": "Rice [4]", "value": "3 (61-100%)"},
      {"measurement": "R = Retardation", "setting": "Rice [4]", "value": "2 (31-60%)"},
      {"measurement": "T = Tillering or side shooting", "setting": "Rice [4]", "value": "3 (61-100%)"},
      {"measurement": "Total Retardation expressed as a percentage of the total retardation caused by paclobutrazol", "setting": "[5]", "value": "84.0 % of paclobutrazol"},
      {"measurement": "G = Greening effect", "setting": "Apple", "value": "1 (10-30%)"}
    ]},
    {"smiles": "CC(C)CC#CC(O)(Cn1cncn1)C(C)(C)C", "note": "(stereo not shown) [Compound 7, 2,2-dimethyl-3-hydroxy-3-(4-methyl-pent-1-yne-1-yl)-4-(1,2,4-triazol-1-yl)-butane]", "values": [
      {"measurement": "G = Greening effect", "setting": "Wheat [1]", "value": "1 (10-30%)"},
      {"measurement": "T = Tillering or side shooting", "setting": "Wheat [1]", "value": "1 (10-30%)"},
      {"measurement": "height reduction vs blank at 1000 ppm", "setting": "Spring Barley; Table VIII", "value": 33, "unit": "%"},
      {"measurement": "height reduction vs blank at 1000 ppm", "setting": "Spring Barley; side-by-side, Table XV", "value": 20, "unit": "%"},
      {"measurement": "height reduction vs blank at 4000 ppm", "setting": "Spring Barley; Table VIII", "value": 75.4, "unit": "%"},
      {"measurement": "height reduction vs blank at 4000 ppm", "setting": "Spring Barley; side-by-side, Table XV", "value": 51, "unit": "%"},
      {"measurement": "Retardation score (1-3) with greening (G), apical damage (A), tillering/side shooting (T)", "setting": "Wheat [2]", "value": 3, "unit": "GT"},
      {"measurement": "Retardation score (1-3) with greening (G), apical damage (A), tillering/side shooting (T)", "setting": "Agrostis tenius", "value": 2, "unit": "G"},
      {"measurement": "Retardation score (1-3) with greening (G), apical damage (A), tillering/side shooting (T)", "setting": "Tomato", "value": 2, "unit": "GT"},
      {"measurement": "Retardation score (1-3) with greening (G), apical damage (A), tillering/side shooting (T)", "setting": "Soya", "value": 3, "unit": "GAT"},
      {"measurement": "Retardation score (1-3) with greening (G), apical damage (A), tillering/side shooting (T)", "setting": "Barley", "value": 2, "unit": "GT"},
      {"measurement": "Percent reduction in rice plant height vs formulation blank at 1000 ppm", "setting": "Rice [3]; Table VII", "value": 11.1, "unit": "%"},
      {"measurement": "Percent reduction in rice plant height vs formulation blank at 1000 ppm", "setting": "Rice [3]; side-by-side, Table XVI", "value": 27, "unit": "%"},
      {"measurement": "Percent reduction in rice plant height vs formulation blank at 4000 ppm", "setting": "Rice [3]; Table VII", "value": 26, "unit": "%"},
      {"measurement": "Percent reduction in rice plant height vs formulation blank at 4000 ppm", "setting": "Rice [3]; side-by-side, Table XVI", "value": 53, "unit": "%"},
      {"measurement": "percent reduction in plant height vs formulation blank at 1000 ppm", "setting": "Apples; Table IX", "value": 15, "unit": "%"},
      {"measurement": "percent reduction in plant height vs formulation blank at 1000 ppm", "setting": "Apples; side-by-side, Table XVII", "value": 30, "unit": "%"},
      {"measurement": "percent reduction in plant height vs formulation blank at 4000 ppm", "setting": "Apples; Table IX", "value": 31, "unit": "%"},
      {"measurement": "percent reduction in plant height vs formulation blank at 4000 ppm", "setting": "Apples; side-by-side, Table XVII", "value": 60, "unit": "%"},
      {"measurement": "Retardation score (1-3) with greening (G), apical damage (A), tillering/side shooting (T)", "setting": "Sugar beet", "value": 1, "unit": "G"},
      {"measurement": "Retardation score (1-3) with greening (G), apical damage (A), tillering/side shooting (T)", "setting": "Cynosurus cristatus", "value": 2, "unit": "G"},
      {"measurement": "G = Greening effect", "setting": "Rice [4]", "value": "1 (10-30%)"},
      {"measurement": "I = Interligular or internodal length reduction", "setting": "Rice [4]", "value": "3 (61-100%)"},
      {"measurement": "R = Retardation", "setting": "Rice [4]", "value": "2 (31-60%)"},
      {"measurement": "T = Tillering or side shooting", "setting": "Rice [4]", "value": "3 (61-100%)"},
      {"measurement": "Total Retardation expressed as a percentage of the total retardation caused by paclobutrazol", "setting": "[5]", "value": "58.6 % of paclobutrazol"},
      {"measurement": "G = Greening effect", "setting": "Apple", "value": "1 (10-30%)"}
    ]}
  ]
}
